Reference: publication PMC10610256, “Development and Preclinical Evaluation of [^68Ga]BMSH as a New Potent Positron Emission Tomography Tracer for Imaging Programmed Death-Ligand 1 Expression” (Pharmaceuticals, 2023)

Key:
[1] = test system: A549-hPDL1 and A549 tumors; assay: Micro-PET imaging, A549-hPDL1 versus A549 tumors; format: in vivo, BALB/c nude mice; conditions: 60 min post-injection
Experimental: For biodistribution and micro-PET imaging studies of [^68Ga]BMSH and [^18F]FDG, male BALB/c nude mice were implanted subcutaneously with 1–5 × 10^6 A549-hPDL1 cells and A549 cells behind right armpit. Mice were imaged or used in biodistribution studies when the tumor xenografts reached 5–10 mm in diameter. Dynamic micro-PET imaging studies were conducted in tumor-bearing nude mice (A549-hPDL1 and A549, n = 3 in each group) using the Madiclab PSA146 PET/CT/FMT instrument (Linyi, China). The images were reconstructed using a three-dimensional ordered-subset expectation maximum (OSEM) algorithm and were converted to the percentage of injected dose per gram of tissue (%ID/g) images. Tumor-bearing mice were intravenously injected with [^68Ga]BMSH (7.4 MBq/mouse) and [^18F]FDG (5.55 MBq/mouse), respectively. For the blocking experiment, the A549-hPDL1 tumor-bearing mice were co-injected with NOTA-BMSH (100 µg/mouse) and [^68Ga]BMSH. For data analysis, the regions of interest (ROIs) were manually drawn over the tumor and major organs on decay-corrected whole-body coronal images using PMOD software (version 4.3, PMOD Technologies Ltd., Zurich, Switzerland).

PD-L1 = target: T1, PD-L1 (Homo sapiens, UniProt Q9NZQ7); assay: Competitive cell-binding experiment against [^68Ga]BMSH; conditions: A549-hPDL1 cells, 60 min
T1 construct: expressed in transfected cells; host or cells: A549 cells stably transduced with hPD-L1 by lentivirus (A549-hPDL1)
T1 sequence (Q9NZQ7 19-290): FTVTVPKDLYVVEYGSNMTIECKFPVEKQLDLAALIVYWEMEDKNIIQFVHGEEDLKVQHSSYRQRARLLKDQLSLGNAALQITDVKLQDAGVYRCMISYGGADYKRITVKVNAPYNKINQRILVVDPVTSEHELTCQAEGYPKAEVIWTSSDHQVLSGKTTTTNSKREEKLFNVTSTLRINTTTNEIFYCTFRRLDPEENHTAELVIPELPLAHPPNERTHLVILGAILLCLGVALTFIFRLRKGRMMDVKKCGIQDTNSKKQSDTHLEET

| Molecule | A549-hPDL1 tumor/A549 tumor uptake ratio [1] | IC50 (PD-L1) [µM] |
| --- | --- | --- |
| [^18F]FDG | 1.08 | – |
| CC(=O)NC1C(NC(=O)[C@H](CCC(=O)N[C@@H](CCC(=O)O)C(=O)N[C@@H](CC(=O)O)C(=O)NCCOCCOCC(=O)NCCNC(=O)[C@@H](CO)CNc2cc(C)c(OCc3cccc(-c4ccc5c(c4)OCCO5)c3C)cc2OCc2cccc(C#N)c2)NC(=O)COCCOCCNC(=O)CN2CCN(CC(=O)O)CCN(CC(=O)O)CC2)OC(CO)C(O)C1O (some centres unmarked) [NOTA-BMSH] | – | 0.449 |
